Data reported in ChEMBL document CHEMBL1146531, “Steroidal saponins from the bark of Dracaena draco and their cytotoxic activities” (J Nat Prod, 2003).
The source made the active and inactive calls. No cut-off for these calls is given here.

Legend:
HL-60 [1] = experiment: Cytotoxicity against human HL60 cells after 72 hrs by MTT assay; type: functional, cell-based; details: HL-60, 72 h
HL-60 [2] = experiment: Cytotoxicity against human HL60 cells after 48 hrs by MTT assay; type: functional, cell-based
HL-60 [3] = experiment: Induction of apoptosis in human HL60 cells assessed as apoptotic cells at 30 uM after 12 hrs measured by morphological change; type: functional
HL-60 [4] = experiment: Induction of apoptosis in human HL60 cells assessed as PARP cleavage at 30 uM after 12 hrs by Western blot analysis; type: functional, cell-based
U-937 = experiment: Cytotoxicity against human U937 cells; type: functional, cell-based

SMILES	IC50 (HL-60 [1])	Activity (HL-60 [3])	also measured
C[C@@H]1CC[C@@]2(OC1)O[C@H]1C[C@H]3[C@@H]4CC=C5C[C@@H](O[C@@H]6O[C@H](CO)[C@@H](O[C@@H]7O[C@@H](C)[C@H](O)[C@@H](O)[C@H]7O)[C@H](O)[C@H]6O[C@@H]6O[C@@H](C)[C@H](O)[C@@H](O)[C@H]6O)CC[C@]5(C)[C@H]4CC[C@]3(C)[C@H]1[C@@H]2C [DIOSCIN]	2 µM		
CO[C@]1(CC[C@@H](C)CO[C@@H]2O[C@H](CO)[C@@H](O)[C@H](O)[C@H]2O)O[C@H]2C[C@H]3[C@@H]4CC=C5C[C@@H](O[C@@H]6O[C@H](CO)[C@@H](O)[C@H](O[C@@H]7O[C@H](CO)[C@@H](O)[C@H](O)[C@H]7O)[C@H]6O[C@@H]6O[C@@H](C)[C@H](O)[C@@H](O)[C@H]6O)CC[C@]5(C)[C@H]4CC[C@]3(C)[C@H]2[C@@H]1C	7.2 µM		
CO[C@]1(CC[C@@H](C)CO[C@@H]2O[C@H](CO)[C@@H](O)[C@H](O)[C@H]2O)O[C@H]2C[C@H]3[C@@H]4CC=C5C[C@@H](O[C@@H]6O[C@H](CO)[C@@H](O[C@@H]7O[C@@H](C)[C@H](O)[C@@H](O)[C@H]7O)[C@H](O)[C@H]6O[C@@H]6O[C@@H](C)[C@H](O)[C@@H](O)[C@H]6O)CC[C@]5(C)[C@H]4CC[C@]3(C)[C@H]2[C@@H]1C [METHYLPROTODIOSCIN]	7.3 µM		Activity (HL-60 [2]): Active
C=C1CO[C@@]2(O[C@H]3C[C@H]4[C@@H]5CC=C6C[C@@H](O)C[C@@H](O[C@@H]7OC[C@H](O)[C@H](O)[C@H]7O[C@@H]7O[C@@H](C)[C@H](OC(C)=O)[C@@H](O)[C@H]7O)[C@]6(C)[C@H]5CC[C@]4(C)[C@H]3[C@@H]2C)[C@@H](O)[C@H]1O	> 100 µM		
C=C1CO[C@@]2(O[C@H]3C[C@H]4[C@@H]5CC=C6C[C@@H](O)C[C@@H](O[C@@H]7OC[C@H](O)[C@H](O)[C@H]7O[C@@H]7O[C@@H](C)[C@H](O)[C@@H](OC(C)=O)[C@H]7OC(C)=O)[C@]6(C)[C@H]5CC[C@]4(C)[C@H]3[C@@H]2C)[C@@H](O)[C@H]1O [DRACONIN B]	39 µM	9.4%	
C[C@@H]1CC[C@@]2(OC1)O[C@H]1C[C@H]3[C@@H]4CC=C5C[C@@H](O[C@@H]6O[C@H](CO)[C@@H](O[C@@H]7O[C@@H](C)[C@H](O)[C@@H](O)[C@H]7O)[C@H](O)[C@H]6O)CC[C@]5(C)[C@H]4CC[C@]3(C)[C@H]1[C@@H]2C	> 100 µM		
C[C@@H]1CC[C@@]2(OC1)O[C@H]1C[C@H]3[C@@H]4CC=C5C[C@@H](O[C@@H]6O[C@H](CO)[C@@H](O)[C@H](O[C@@H]7O[C@H](CO)[C@@H](O)[C@H](O)[C@H]7O)[C@H]6O[C@@H]6O[C@@H](C)[C@H](O)[C@@H](O)[C@H]6O)CC[C@]5(C)[C@H]4CC[C@]3(C)[C@H]1[C@@H]2C [GRACILLIN]	3.7 µM		
C=C1CO[C@@]2(O[C@H]3C[C@H]4[C@@H]5CC=C6C[C@@H](O)C[C@@H](O[C@@H]7OC[C@H](O)[C@H](O)[C@H]7O[C@@H]7O[C@@H](C)[C@H](O)[C@@H](O)[C@H]7OC(C)=O)[C@]6(C)[C@H]5CC[C@]4(C)[C@H]3[C@@H]2C)[C@@H](O)[C@H]1O [DRACONIN C]	> 100 µM	5%	
C=C1CO[C@@]2(O[C@H]3C[C@H]4[C@@H]5CC=C6C[C@@H](O)C[C@@H](O[C@@H]7OC[C@H](O)[C@H](O)[C@H]7O[C@@H]7O[C@@H](C)[C@H](OC(C)=O)[C@@H](OC(C)=O)[C@H]7OC(C)=O)[C@]6(C)[C@H]5CC[C@]4(C)[C@H]3[C@@H]2C)[C@@H](O)[C@H]1O [DRACONIN A]	9.7 µM	35.1%	Activity (HL-60 [4]): Dose-dependent effect; IC50 (U-937): 6.8 µM
